Measurements as given in US7700782B2, “Compounds 569” (AstraZeneca AB, priority 2007, dated 2010).
Structures can show the parent of a compound that is named as a salt.

Biological target: T1, Adrenergic β2 (Homo sapiens, UniProt P07550)
T1 construct: Adherent H292 cells were removed from tissue culture flasks; endogenous in cells; host or cells: H292 cells
Assay: Adrenergic β2 mediated cAMP production in H292 cells (AlphaScreen cAMP detection)
Format: cell-based
Settings: Intrinsic Activity, fraction relative to the maximum activity determined for formoterol
How it was run: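 H292 cells, 5000/well, preincubated 10 min with rolipram (final 300 μM, 1.6% DMSO) in HEPES pH 7.4 HBSS, then compound 60 min at room temperature. Lysate cAMP quantified by AlphaScreen against a cAMP standard curve. pEC50 and intrinsic activity (fraction of formoterol maximum) from four-parameter logistic fits.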

T1 sequence (P07550 whole entry): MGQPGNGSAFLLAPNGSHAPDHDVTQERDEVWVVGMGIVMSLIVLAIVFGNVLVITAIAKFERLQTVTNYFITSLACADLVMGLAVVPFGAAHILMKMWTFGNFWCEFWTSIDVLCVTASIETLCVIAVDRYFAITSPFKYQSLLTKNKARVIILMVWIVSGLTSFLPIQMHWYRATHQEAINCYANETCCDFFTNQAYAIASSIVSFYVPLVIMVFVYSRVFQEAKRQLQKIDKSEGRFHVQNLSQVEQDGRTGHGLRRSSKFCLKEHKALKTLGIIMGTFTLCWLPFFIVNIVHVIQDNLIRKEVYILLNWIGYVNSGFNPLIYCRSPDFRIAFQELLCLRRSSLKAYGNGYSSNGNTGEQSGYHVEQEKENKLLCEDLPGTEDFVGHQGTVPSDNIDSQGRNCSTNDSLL

Structure (SMILES)	β2 Int Act
O=C(CCNCCc1ccc(F)c(F)c1)N(CCNCCc1ccc(O)c2[nH]c(=O)sc12)C1CCCCCC1 [Example 53, N^1-Cycloheptyl-N^3-[2-(3,4-difluorophenyl)ethyl]-N^1-(2-{[2-(4-hydroxy-2-oxo-2,3-dihydro-1,3-benzothiazol-7-yl)ethyl]amino}ethyl)-β-alaninamide bis-trifluoroacetic acid salt]	0.74
O=C(CCNCCc1ccc(F)cc1F)N(CCNCCc1ccc(O)c2[nH]c(=O)sc12)C1CCCCCC1 [Example 55, N^1-Cycloheptyl-N^3-[2-(2,4-difluorophenyl)ethyl]-N^1-(2-{[2-(4-hydroxy-2-oxo-2,3-dihydro-1,3-benzothiazol-7-yl)ethyl]amino}ethyl)-β-alaninamide bis-trifluoroacetic acid salt]	0.81
O=C(CCNCCc1cccc(F)c1F)N(CCNCCc1ccc(O)c2[nH]c(=O)sc12)C1CCCCCC1 [Example 56, N^1-Cycloheptyl-N^3-[2-(2,3-difluorophenyl)ethyl]-N^1-(2-{[2-(4-hydroxy-2-oxo-2,3-dihydro-1,3-benzothiazol-7-yl)ethyl]amino}ethyl)-β-alaninamide bis-trifluoroacetic acid salt]	0.86
O=C(CCNCCc1cc(F)cc(F)c1)N(CCNCCc1ccc(O)c2[nH]c(=O)sc12)C1CCCCCC1 [Example 58, N^1-Cycloheptyl-N^3-[2-(3,5-difluorophenyl)ethyl]-N^1-(2-{[2-(4-hydroxy-2-oxo-2,3-dihydro-1,3-benzothiazol-7-yl)ethyl]amino}ethyl)-β-alaninamide bis-trifluoroacetic acid salt]	0.84
O=C(CCNCCc1ccccc1)N(CCNCCc1ccc(O)c2[nH]c(=O)sc12)CC12CC3CC(CC(C3)C1)C2 [Example 59, N^1-(1-Adamantylmethyl)-N^1-(2-{[2-(4-hydroxy-2-oxo-2,3-dihydro-1,3-benzothiazol-7-yl)ethyl]amino}ethyl)-N^3-(2-phenylethyl)-β-alaninamide bis-trifluoroacetic acid salt]	0.85
O=C(CCNCCc1ccccc1)N(CCNCCc1ccc(O)c2[nH]c(=O)sc12)C1CCSCC1 [Example 62, N^1-(2-{[2-(4-Hydroxy-2-oxo-2,3-dihydro-1,3-benzothiazol-7-yl)ethyl]amino}ethyl)-N^3-(2-phenylethyl)-N^1-(tetrahydro-2H-thiopyran-4-yl)-β-alaninamide bis-trifluoroacetic acid salt]	0.87
CCCC(CCC)N(CCNCCc1ccc(O)c2[nH]c(=O)sc12)C(=O)CCNCCc1cccc(F)c1 [Example 63, N^3-[2-(3-Fluorophenyl)ethyl]-N^1-(2-{[2-(4-hydroxy-2-oxo-2,3-dihydro-1,3-benzothiazol-7-yl)ethyl]amino}ethyl)-N^1-(1-propylbutyl)-β-alaninamide bis-trifluoroacetic acid salt]	0.93
CC(C)(CO)CN(CCNCCc1ccc(O)c2[nH]c(=O)sc12)C(=O)CCNCCc1ccccc1Cl [Example 65, N^3-[2-(2-Chlorophenyl)ethyl]-N^1-(3-hydroxy-2,2-dimethylpropyl)-N^1-(2-{[2-(4-hydroxy-2-oxo-2,3-dihydro-1,3-benzothiazol-7-yl)ethyl]amino}ethyl)-β-alaninamide bis-trifluoroacetic acid salt]	0.59
CC(C)(CO)CN(CCNCCc1ccc(O)c2[nH]c(=O)sc12)C(=O)CCNCCc1cccc(Cl)c1Cl [Example 67, N^3-[2-(2,3-Dichlorophenyl)ethyl]-N^1-(3-hydroxy-2,2-dimethylpropyl)-N^1-(2-{[2-(4-hydroxy-2-oxo-2,3-dihydro-1,3-benzothiazol-7-yl)ethyl]amino}ethyl)-β-alaninamide bis-trifluoroacetic acid salt]	0.70

Next, values leading:

β2 Int Act	Structure (SMILES)
0.92	O=C(CCNCCc1cccs1)N(CCNCCc1ccc(O)c2[nH]c(=O)sc12)C1CCCCCC1 [Example 52, N^1-Cycloheptyl-N^1-(2-{[2-(4-hydroxy-2-oxo-2,3-dihydro-1,3-benzothiazol-7-yl)ethyl]amino}ethyl)-N^3-[2-(2-thienyl)ethyl]-β-alaninamide bis-trifluoroacetic acid salt]
0.69	O=C(CCNCCc1cccc(OC(F)F)c1)N(CCNCCc1ccc(O)c2[nH]c(=O)sc12)C1CCCCCC1 [Example 54, N^1-Cycloheptyl-N^3-{2-[3-(difluoromethoxy)phenyl]ethyl}-N^1-(2-{[2-(4-hydroxy-2-oxo-2,3-dihydro-1,3-benzothiazol-7-yl)ethyl]amino}ethyl)-β-alaninamide bis-trifluoroacetic acid salt]
0.72	O=C(CCNCCc1ccc(F)cc1Cl)N(CCNCCc1ccc(O)c2[nH]c(=O)sc12)C1CCCCCC1 [Example 57, N^3-[2-(2-Chloro-4-fluorophenyl)ethyl]-N^1-cycloheptyl-N^1-(2-{[2-(4-hydroxy-2-oxo-2,3-dihydro-1,3-benzothiazol-7-yl)ethyl]amino}ethyl)-β-alaninamide bis-trifluoroacetic acid salt]
0.76	O=C(CCNCCc1cccc(F)c1)N(CCNCCc1ccc(O)c2[nH]c(=O)sc12)CC12CC3CC(CC(C3)C1)C2 [Example 60, N^1-(1-Adamantylmethyl)-N^3-[2-(3-fluorophenyl)ethyl]-N^1-(2-{[2-(4-hydroxy-2-oxo-2,3-dihydro-1,3-benzothiazol-7-yl)ethyl]amino}ethyl)-β-alaninamide bis-trifluoroacetic acid salt]
0.79	O=C(CCNCCc1ccc(F)cc1)N(CCNCCc1ccc(O)c2[nH]c(=O)sc12)CC12CC3CC(CC(C3)C1)C2 [Example 61, N^1-(1-Adamantylmethyl)-N^3-[2-(4-fluorophenyl)ethyl]-N^1-(2-{[2-(4-hydroxy-2-oxo-2,3-dihydro-1,3-benzothiazol-7-yl)ethyl]amino}ethyl)-β-alaninamide bis-trifluoroacetic acid salt]
0.70	CCCC(CCC)N(CCNCCc1ccc(O)c2[nH]c(=O)sc12)C(=O)CCNCCc1ccc(F)cc1 [Example 64, N^3-[2-(4-Fluorophenyl)ethyl]-N^1-(2-{[2-(4-hydroxy-2-oxo-2,3-dihydro-1,3-benzothiazol-7-yl)ethyl]amino}ethyl)-N^1-(1-propylbutyl)-β-alaninamide bis-trifluoroacetic acid salt]
0.59	CC(C)(CO)CN(CCNCCc1ccc(O)c2[nH]c(=O)sc12)C(=O)CCNCCc1cccc(Cl)c1 [Example 66, N^3-[2-(3-Chlorophenyl)ethyl]-N^1-(3-hydroxy-2,2-dimethylpropyl)-N^1-(2-{[2-(4-hydroxy-2-oxo-2,3-dihydro-1,3-benzothiazol-7-yl)ethyl]amino}ethyl)-β-alaninamide bis-trifluoroacetic acid salt]
0.68	COc1ccc(CCNCCC(=O)N(CCNCCc2ccc(O)c3[nH]c(=O)sc23)C2CCCCC2)cc1 [Example 68, N^1-Cyclohexyl-N^1-(2-{[2-(4-hydroxy-2-oxo-2,3-dihydro-1,3-benzothiazol-7-yl)ethyl]amino}ethyl)-N^3-[2-(4-methoxyphenyl)ethyl]-β-alaninamide bis-trifluoroacetic acid salt]
